Experimental data as given in patent publication US11180499B2, “Phosphodiesterase inhibitors” (BOARD OF REGENTS OF THE UNIVERSITY OF NEBRASKA, priority 2018, dated 2021).

Columns and labels:
PDE4D = target: T1, PDE4D (Homo sapiens, UniProt Q08499); assay: In vitro PDE4 inhibition study, PDE4D (BPS Bioscience); format: binding; conditions: values in parentheses
T1 construct: purchased BPS Bioscience, San Diego
Experimental: (§1) The IC50 values of Compound 8 on PDE4 isoforms were determined by BPS Bioscience, San Diego. In brief, coat proteins (PDE4 isoforms) were added into the plate in a volume of 50 μl (2-5 ng/μl) at 4° C. overnight. The next day, Compound 8 was added to the coated plate with varying concentrations followed by addition of the corresponding biotinylated binding partner. The reaction was incubated for 2 hours at room temperature. Binding assays were performed in duplicate at each concentration and the plates were read by using Synergy 2 BioTek plate reader. The luminescence data were analyzed using the Graphpad Prism. […] Data for a reference compounds or antibodies are included as a control for inhibition. “ND” indicates the compound was not tested.

PDE4B = target: T2, PDE4B (Homo sapiens, UniProt Q07343); assay: In vitro PDE4 inhibition study, PDE4B (BPS Bioscience); format: binding; conditions: for inhibition at 10 µM: values in parentheses
T2 construct: purchased BPS Bioscience, San Diego
T2 sequence (Q07343 whole entry): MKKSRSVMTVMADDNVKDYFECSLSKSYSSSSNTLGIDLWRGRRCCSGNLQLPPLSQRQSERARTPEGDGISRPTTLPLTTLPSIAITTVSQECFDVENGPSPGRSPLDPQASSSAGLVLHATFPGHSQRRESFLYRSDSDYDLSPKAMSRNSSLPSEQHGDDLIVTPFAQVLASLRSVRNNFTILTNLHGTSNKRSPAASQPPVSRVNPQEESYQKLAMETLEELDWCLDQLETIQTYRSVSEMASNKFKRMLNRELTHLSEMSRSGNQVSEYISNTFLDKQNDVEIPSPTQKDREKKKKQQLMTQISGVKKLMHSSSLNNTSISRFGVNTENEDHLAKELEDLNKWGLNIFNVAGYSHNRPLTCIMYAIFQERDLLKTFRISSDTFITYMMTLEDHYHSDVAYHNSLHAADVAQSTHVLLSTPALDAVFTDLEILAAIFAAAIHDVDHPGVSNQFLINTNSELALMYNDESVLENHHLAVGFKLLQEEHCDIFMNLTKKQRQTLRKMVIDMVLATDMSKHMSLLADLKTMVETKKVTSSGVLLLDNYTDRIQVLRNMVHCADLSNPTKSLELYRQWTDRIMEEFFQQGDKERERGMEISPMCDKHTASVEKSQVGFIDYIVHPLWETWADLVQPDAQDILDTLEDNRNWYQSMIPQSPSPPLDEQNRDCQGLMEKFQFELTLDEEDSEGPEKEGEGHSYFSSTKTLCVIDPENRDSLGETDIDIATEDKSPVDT
Experimental: as §1

T1 sequence (Q08499 whole entry): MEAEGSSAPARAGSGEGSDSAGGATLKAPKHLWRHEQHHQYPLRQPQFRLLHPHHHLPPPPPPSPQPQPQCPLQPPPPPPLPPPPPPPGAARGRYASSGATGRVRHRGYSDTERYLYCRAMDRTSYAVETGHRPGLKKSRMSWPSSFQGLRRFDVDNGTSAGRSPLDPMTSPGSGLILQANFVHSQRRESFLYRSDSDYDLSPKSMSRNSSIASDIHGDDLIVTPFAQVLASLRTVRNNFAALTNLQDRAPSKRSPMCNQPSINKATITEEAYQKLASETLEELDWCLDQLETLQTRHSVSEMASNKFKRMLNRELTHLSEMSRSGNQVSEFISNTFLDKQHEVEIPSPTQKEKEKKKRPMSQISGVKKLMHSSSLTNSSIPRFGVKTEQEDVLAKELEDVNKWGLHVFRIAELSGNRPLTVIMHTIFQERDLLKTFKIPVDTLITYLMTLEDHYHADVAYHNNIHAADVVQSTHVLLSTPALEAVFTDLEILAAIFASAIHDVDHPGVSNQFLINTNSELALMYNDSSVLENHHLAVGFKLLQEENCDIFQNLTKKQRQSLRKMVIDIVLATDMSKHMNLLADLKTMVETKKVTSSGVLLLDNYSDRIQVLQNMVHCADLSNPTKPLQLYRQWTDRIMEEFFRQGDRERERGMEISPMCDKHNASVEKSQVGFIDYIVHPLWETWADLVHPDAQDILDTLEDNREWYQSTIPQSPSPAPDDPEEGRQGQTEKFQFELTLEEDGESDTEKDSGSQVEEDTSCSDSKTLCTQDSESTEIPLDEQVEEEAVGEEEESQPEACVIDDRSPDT

SMILES	inhibition at 10 µM (PDE4D) [%]	IC50 (PDE4B) [µM]	inhibition at 10 µM (PDE4B) [%]
O=C(NC1CCC1)c1cc2cccnc2n1-c1ccc(Cl)c(Cl)c1 [Compound 2, N-cyclobutyl-1-(3,4-dichlorophenyl)-1H-pyrrolo[2,3-b]pyridine-2-carboxamide]	24	1.1	
O=C(NC1CC(F)C1)c1cc2cccnc2n1-c1ccc(Cl)c(Cl)c1 (stereo not drawn) [Compound 3, 1-(3,4-Dichlorophenyl)-N-(3-fluorocyclobutyl)-1H-pyrrolo[2,3-b]pyridine-2-carboxamide]	36	0.6	
O=C(NC1CC(F)(F)C1)c1cc2cccnc2n1-c1ccc(Cl)c(Cl)c1 [Compound 4, 1-(3,4-dichlorophenyl)-N-(3,3-difluorocyclobutyl)-1H-pyrrolo[2,3-b]pyridine-2-carboxamide]	11.6		23
O=C(NCc1ccco1)c1cc2cccnc2n1-c1ccc(Cl)c(Cl)c1 [Compound 5, 1-(3,4-dichlorophenyl)-N-(furan-2-ylmethyl)-1H-pyrrolo[2,3-b]pyridine-2-carboxamide]	52		70
O=C(c1cc2cccnc2n1-c1ccc(Cl)c(Cl)c1)N1CCC1 [Compound 6, Azetidin-1-yl(1-(3,4-dichlorophenyl)-1H-pyrrolo[2,3-b]pyridin-2-yl)methanone]		0.11	
O=C(c1cc2cccnc2n1-c1ccc(Cl)c(Cl)c1)N1CC(F)C1 [Compound 7, (1-(3,4-dichlorophenyl)-1H-pyrrolo[2,3-b]pyridin-2-yl)(3-fluoroazetidin-1-yl)methanone]	77	0.23	
O=C(c1cc2cccnc2n1-c1ccc(Cl)c(Cl)c1)N1CCCC2(CCO2)C1 (stereo not drawn) [Compound 10, (1-(3,4-dichlorophenyl)-1H-pyrrolo[2,3-b]pyridin-2-yl)(1-oxa-6-azaspiro[3.5]nonan-6-yl)methanone]	39		73
O=C(c1cc2cccnc2n1-c1ccc(Cl)c(Cl)c1)N1CCS(=O)(=O)CC1 [Compound 11, (1-(3,4-dichlorophenyl)-1H-pyrrolo[2,3-b]pyridin-2-yl)(1,1-dioxidothiomorpholino) methanone]	17		39
O=C(c1cc2cccnc2n1-c1ccc(Cl)c(Cl)c1)N1CCC2(CCC2)CC1 [Compound 12, (1-(3,4-dichlorophenyl)-1H-pyrrolo[2,3-b]pyridin-2-yl)(7-azaspiro[3.5]nonan-7-yl) methanone]	29		50
O=C(c1cc2cccnc2n1-c1ccc(Cl)c(Cl)c1)N1CCC2(CCC2)C1 [Compound 13, (1-(3,4-dichlorophenyl)-1H-pyrrolo[2,3-b]pyridin-2-yl)(6-azaspiro[3.4]octan-6-yl) methanone]		0.98	
O=C(c1cc2cccnc2n1-c1ccc(Cl)c(Cl)c1)N1CC2(CCNCC2)C1 [Compound 15, (1-(3,4-dichlorophenyl)-1H-pyrrolo[2,3-b]pyridin-2-yl)(2,7-diazaspiro[3.5]nonan-2-yl) methanone]	13		33
Cc1ccc(-n2c(C(=O)NC3CCC3)cc3cccnc32)cc1Cl [Compound 17, 1-(3-chloro-4-methylphenyl)-N-cyclobutyl-1H-pyrrolo[2,3-b]pyridine-2-carboxamide]	43	2.3	
Cc1ccc(-n2c(C(=O)N3CC(F)C3)cc3cccnc32)cc1Cl [Compound 20, (1-(3-chloro-4-methylphenyl)-1H-pyrrolo[2,3-b]pyridin-2-yl)(3-fluoroazetidin-1-yl) methanone]	60	0.91	
O=C(NC1CC1)c1cc2cccnc2n1-c1cc(F)c(Cl)c(F)c1 [Compound 21, 1-(4-chloro-3,5-difluorophenyl)-N-cyclopropyl-1H-pyrrolo[2,3-b]pyridine-2-carboxamide]	53	1.4	
O=C(NC1CCC1)c1cc2cccnc2n1-c1cc(F)c(Cl)c(F)c1 [Compound 22, 1-(4-chloro-3,5-difluorophenyl)-N-cyclobutyl-1H-pyrrolo[2,3-b]pyridine-2-carboxamide]	10.7	1.3	
O=C(c1cc2cccnc2n1-c1cc(F)c(Cl)c(F)c1)N1CC(F)C1 [Compound 25, (1-(4-chloro-3,5-difluorophenyl)-1H-pyrrolo[2,3-b]pyridin-2-yl)(3-fluoroazetidin-1-yl) methanone]	62	0.21	

SMILES	inhibition at 10 µM (PDE4D) [%]	IC50 (PDE4B) [µM]	inhibition at 10 µM (PDE4B) [%]
N#Cc1c(F)cc(-n2c(C(=O)NC3CC3)cc3cccnc32)cc1F [Compound 26, 1-(4-cyano-3,5-difluorophenyl)-N-cyclopropyl-1H-pyrrolo[2,3-b]pyridine-2-carboxamide]	18.5	1.4	
N#Cc1c(F)cc(-n2c(C(=O)NC3CCC3)cc3cccnc32)cc1F [Compound 27, 1-(4-cyano-3,5-difluorophenyl)-N-cyclobutyl-1H-pyrrolo[2,3-b]pyridine-2-carboxamide]	16.6	1.8	
N#Cc1c(F)cc(-n2c(C(=O)NC3CC(F)C3)cc3cccnc32)cc1F (stereo not drawn) [Compound 28, 1-(4-cyano-3,5-difluorophenyl)-N-(3-fluorocyclobutyl)-1H-pyrrolo[2,3-b]pyridine-2-carboxamide]	12.1		58
N#Cc1c(F)cc(-n2c(C(=O)NC3CC(F)(F)C3)cc3cccnc32)cc1F [Compound 29, 1-(4-cyano-3,5-difluorophenyl)-N-(3,3-difluorocyclobutyl)-1H-pyrrolo[2,3-b]pyridine-2-carboxamide]	18		47
N#Cc1c(F)cc(-n2c(C(=O)N3CC(F)C3)cc3cccnc32)cc1F [Compound 30, 2,6-difluoro-4-(2-(3-fluoroazetidine-1-carbonyl)-1H-pyrrolo[2,3-b]pyridin-1-yl)benzonitrile]	66	0.43	
O=C(NC1CC1)c1cc2cccnc2n1-c1ccc(Cl)cc1 [Compound 31, 1-(4-chlorophenyl)-N-cyclopropyl-1H-pyrrolo[2,3-b]pyridine-2-carboxamide]	10.1	2.9	
O=C(NC1CCC1)c1cc2cccnc2n1-c1ccc(Cl)cc1 [Compound 32, 1-(4-chlorophenyl)-N-cyclobutyl-1H-pyrrolo[2,3-b]pyridine-2-carboxamide]	28.2	5	
O=C(NC1CC1)c1cc2cccnc2n1-c1ccc(Cl)c(F)c1 [Compound 33, 1-(4-chloro-3-fluorophenyl)-N-cyclopropyl-1H-pyrrolo[2,3-b]pyridine-2-carboxamide]	24	0.97	
O=C(NC1CCC1)c1cc2cccnc2n1-c1ccc(Cl)c(F)c1 [Compound 34, 1-(4-chloro-3-fluorophenyl)-N-cyclobutyl-1H-pyrrolo[2,3-b]pyridine-2-carboxamide]	39	1.3	
O=C(c1cc2cccnc2n1-c1ccc(Cl)c(F)c1)N1CC(F)C1 [Compound 37, (1-(4-chloro-3-fluorophenyl)-1H-pyrrolo[2,3-b]pyridin-2-yl)(3-fluoroazetidin-1-yl) methanone]	71	0.61	
COc1ccc(-n2c(C(=O)N3CC(F)C3)cc3cccnc32)cc1 [Compound 38, (3-fluoroazetidin-1-yl)(1-(4-methoxyphenyl)-1H-pyrrolo[2,3-b]pyridin-2-yl)methanone]	37		67
COc1ncc(-n2c(C(=O)N3CC(F)C3)cc3cccnc32)cc1Cl [Compound 39, (1-(5-chloro-6-methoxypyridin-3-yl)-1H-pyrrolo[2,3-b]pyridin-2-yl)(3-fluoroazetidin-1-yl) methanone]		0.49	
O=C(c1cc2cccnc2n1-c1ccnc(F)c1)N1CC(F)C1 [Compound 41, (3-fluoroazetidin-1-yl)(1-(2-fluoropyridin-4-yl)-1H-pyrrolo[2,3-b]pyridin-2-yl)methanone]		0.98	
COc1c(F)cc(-n2c(C(=O)N3CC(F)C3)cc3cccnc32)cc1F [Compound 42, (1-(3,5-difluoro-4-methoxyphenyl)-1H-pyrrolo[2,3-b]pyridin-2-yl)(3-fluoroazetidin-1-yl) methanone]		0.41	
O=C(c1cc2cccnc2n1Cc1ccc(Cl)c(Cl)c1)N1CC(F)C1 [Compound 43, (1-(3,4-dichlorobenzyl)-1H-pyrrolo[2,3-b]pyridin-2-yl)(3-fluoroazetidin-1-yl)methanone]	58		72
